Measured values from paper PMC3408624 (Chemistry & biology, 2012).
“Also recorded” adds a separate entry of the source. Where two headings read alike, the source gives them in different places.

How the values were obtained:
[1] = biological target: T1, anthrax lethal factor (LF) (Bacillus anthracis, UniProt P15917); assay: biochemical; type: biochemical
[2] = biological target: T1, anthrax lethal factor (LF); assay: biochemical; type: biochemical; remark: listed apart in the source
[3] = biological target: LF cleavage of endogenous MKK3 and MKK4 in RAW264.7 cell lysate (Bacillus anthracis, UniProt P15917); type: biochemical
RAW264.7 cells [4] = type: cell-based
RAW264.7 cells [5] = type: cell-based; remark: listed apart in the source
[6] = biological target: T1, anthrax lethal factor (LF); type: biochemical
[7] = read-out: IC50 (µM), MKK6 cleavage

T1 sequence (P15917 34-809 limits assumed): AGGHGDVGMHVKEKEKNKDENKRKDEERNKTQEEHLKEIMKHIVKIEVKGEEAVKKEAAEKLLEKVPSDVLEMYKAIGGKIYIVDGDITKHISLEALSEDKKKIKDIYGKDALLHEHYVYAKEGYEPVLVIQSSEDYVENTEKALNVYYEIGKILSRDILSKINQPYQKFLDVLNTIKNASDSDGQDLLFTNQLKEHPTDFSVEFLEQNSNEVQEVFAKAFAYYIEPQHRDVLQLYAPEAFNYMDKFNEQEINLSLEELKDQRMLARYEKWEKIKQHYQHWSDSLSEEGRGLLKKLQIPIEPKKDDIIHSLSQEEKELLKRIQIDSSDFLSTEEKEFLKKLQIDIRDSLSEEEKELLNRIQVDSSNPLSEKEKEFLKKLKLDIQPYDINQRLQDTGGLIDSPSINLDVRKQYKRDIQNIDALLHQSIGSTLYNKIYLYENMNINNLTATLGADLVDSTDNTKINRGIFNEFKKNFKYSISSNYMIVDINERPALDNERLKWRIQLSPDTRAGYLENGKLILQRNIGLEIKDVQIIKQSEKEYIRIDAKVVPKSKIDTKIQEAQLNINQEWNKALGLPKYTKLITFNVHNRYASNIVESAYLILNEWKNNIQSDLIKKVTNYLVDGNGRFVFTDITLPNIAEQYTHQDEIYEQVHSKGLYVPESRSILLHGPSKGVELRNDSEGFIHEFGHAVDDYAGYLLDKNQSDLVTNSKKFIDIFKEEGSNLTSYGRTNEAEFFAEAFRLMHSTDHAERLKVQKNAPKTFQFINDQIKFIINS
LF cleavage of endogenous MKK3 and MKK4 in RAW264.7 cell lysate, sequence (P15917 34-809 limits assumed): as above

Compound | IC50 [1, 7] [µM] | IC50 [1] [µM] | Inhibition of MKK6 cleavage by LF (structure-activity profile, in words) [1] | Inhibition of LF cleavage of a peptide substrate (in words) [2] | Inhibition of MKK3 cleavage by LF in cell lysate [3] | Inhibition of MKK4 cleavage by LF in cell lysate [3] | MKK3 cleavage in intact LeTx-treated cells (RAW264.7 cells [4]) | Protection against LeTx-induced cell death (MTT viability) (RAW264.7 cells [5]) | further results
Reduced stictic acid [Compound 8] | > 250 |  |  |  |  |  |  |  | 
COC(=O)c1c(OC)cc2c(c1C)Oc1c(Cl)c(O)c(Cl)c(C)c1C(=O)O2 [Compound 4, Gangaleoidin] |  | > 250 | failed to inhibit LF |  |  |  |  |  | 
COc1cc(C(=O)O)c2c(c1C)OC(=O)c1c(C)cc(O)c(C=O)c1O2 [Compound 3, Parellic acid] | 125 ± 20 |  | active as inhibitors | weak inhibitors | inhibited cleavage | inhibited cleavage | decreased MKK3 cleavage | partial protection | 
COc1cc(C)c2c(c1C=O)Oc1c(c(C)c(O)c3c1C(O)OC3=O)OC2=O (centres unmarked) [Compound 1, Stictic acid] |  | 24 ± 3 |  | weak inhibitors | inhibited cleavage | inhibited cleavage | decreased MKK3 cleavage | partial protection | 
CNC(=O)[C@H](Cc1c[nH]c2ccccc12)NC(=O)[C@@H](CC(=O)NO)CC(C)C [GM6001, reference compound] |  |  |  |  |  |  |  |  | IC50 [2]: 9 µM; Result in primary FP screen for inhibition of LF cleavage of labeled MKK6 [6]: scored as a hit
COc1ccccc1C=O [o-anisaldehyde, reference compound] |  |  |  |  |  |  |  |  | Inhibition of MKK6 cleavage by LF (in words) [1]: no detectable inhibition
COC(=O)c1c(C)cc(OC(=O)c2c(C)cc(O)c(C=O)c2O)c(C)c1O [Compound 7, Atranorin] |  |  | lack of inhibition |  |  |  |  | failed to inhibit cell death | IC50 (µM), MKK6 cleavage [1]: No inhibition
Cc1cc(O)c(C=O)c2c1C(=O)Oc1c(CO)c(O)c3c(c1O2)C(O)OC3=O (centres unmarked) [Compound 2, Salazinic acid] | 42 ± 5 |  | active as inhibitors | weak inhibitors | inhibited cleavage | inhibited cleavage | decreased MKK3 cleavage | partial protection | Mode of inhibition of LF cleavage of MKK6 [1]: competitive inhibition; also recorded: increased KM with no effect on Vmax
Cc1cc(OC(=O)c2c(C)cc(O)cc2O)cc(O)c1C(=O)O [Compound 6, Lecanoric acid] |  |  | lack of inhibition |  |  |  |  | failed to inhibit cell death | IC50 (µM), MKK6 cleavage [1]: No inhibition
CCCCCC(=O)Cc1cc(O)cc2c1C(=O)Oc1cc(O)c(C(=O)O)c(CCCCC)c1O2 [Compound 5, Physodic acid] |  | > 250 | failed to inhibit LF |  |  |  |  |  | 
